Laboratory results as given in US7547804B2, “Compounds, compositions, and methods employing same” (Myriad Genetics, Inc., priority 2002, dated 2009).

test system: LNCaP cell lines; experiment: WST-1 Cell Proliferation and Viability Assay; assay type: cell-based; details: Homo sapiens; LNCaP cells, compound incubation 18-72 hours
Experimental: WST-1 Cell Proliferation and Viability Assay
Cell proliferation and cell viability was assessed using the tetrazolium salt WST-1 (Roche Applied Science, Indianapolis Ind.). The assay is based on the cleavage of WST-1 (light red) by mitochondrial dehydrogenase causing the formation of formazan (dark red), which can be measured on an optical density (O.D.) reader. LNCaP cell lines were plated in 96 well tissue culture plates (Corning Costar, N.Y.) at a density of 5000 cells/well in 150 μl complete media phenol-red free (RPMI-1640 [Invitrogen, Carlsbad Calif.] and 10% fetal calf serum). This plate is termed the assay plate. After the cells are plated, they are then incubated overnight at 37 degrees Celsius in a humidified chamber containing 5% CO2 (incubator).
Compounds are added to the assay plate in 50 μl of complete media and 0.4% DMSO (v:v) making the final DMSO concentration 0.1%. The assay plate is then returned to the incubator for 18-72 hours. WST-1 reagent is then added (20 μl/well) and the plate is placed on an ELISA plate shaker for 30 minutes at room temperature. Plates are then transferred back to the incubator for an additional 3 hours. Plates are then read on a 96 well plate O.D. reader at A490-A650.

Row | EC50 | Compound
1 | 23 µM | CC(=O)Nc1cccc(C(=O)Nc2cccc(OCCc3ccccc3)c2)c1O [Compound 2]
2 | 5 µM | O=CNc1cccc(C(=O)Nc2cccc(OCCc3ccccc3)c2)c1O [Compound 5]
3 | 18 µM | CC(C)Cc1ccc(CNc2cccc(NC(=O)c3cc(Cl)ccc3O)c2)cc1 [Compound 13]
4 | 18 µM | CC(C)c1ccc(CNc2cccc(NC(=O)c3cc(Cl)ccc3O)c2)cc1 [Compound 14]
5 | 12 µM | O=C(Nc1cccc(OCc2ccccc2)c1)c1cc(Cl)ccc1O [Compound 15]
6 | 8 µM | COc1ccccc1CCCOc1cccc(NC(=O)c2cc(Cl)ccc2O)c1 [Compound 16]
7 | 2 µM | O=C(Nc1cccc(OC2CCCC[C@H]2c2ccccc2)c1)c1cc(Cl)ccc1O (stereo partly drawn) [Compound 17]
8 | 7 µM | CC(COc1cccc(NC(=O)c2cc(Cl)ccc2O)c1)c1ccccc1 (stereo not drawn) [Compound 19]
9 | 24 µM | O=C(NCc1ccc(Oc2ccccc2)cc1)c1cc(Cl)ccc1O [Compound 26]
10 | 4 µM | O=C(Nc1cc(OCCc2ccccc2)ccc1Cl)c1cc(Cl)ccc1O [Compound 27]
11 | 31 µM | O=C(Nc1cccc(NCc2ccccc2)c1)c1cc(Cl)ccc1O [Compound 28]
12 | 50 µM | CCN(CC)CCOc1cccc(CNc2cccc(NC(=O)c3cc(Cl)ccc3O)c2)c1 [Compound 30]
13 | 2 µM | O=C(Nc1cc(Cl)ccc1Oc1ccc(Cl)c2ccccc12)c1cc(Cl)ccc1O [Compound 31]
14 | 10 µM | COc1ccc(CCOc2cccc(NC(=O)c3cc(Cl)ccc3O)c2)cc1OC [Compound 34]
15 | 5 µM | O=C(Nc1cccc(OCCC2CCCCC2)c1)c1cc(Cl)ccc1O [Compound 46]
16 | 1 µM | O=C(Nc1cccc(C(F)(F)F)c1)c1cc(Cl)ccc1O [Compound 56]
17 | 10 µM | O=C(Nc1ccccc1C(F)(F)F)c1cc(Cl)ccc1O [Compound 58]
18 | 10 µM | Cc1ccc(CCOc2cccc(NC(=O)c3cc(Cl)ccc3O)c2)cc1 [Compound 59]
19 | 1 µM | O=C(Nc1ccc(C(F)(F)F)cc1)c1cc(Cl)ccc1O [Compound 61]
20 | 4 µM | Cc1cc(C)c(CCOc2cccc(NC(=O)c3cc(Cl)ccc3O)c2)c(C)c1 [Compound 62]

Row | EC50 | Compound
21 | 17 µM | O=C(Nc1cccc(OCc2ccc(Cl)cc2)c1)c1cc(Cl)ccc1O [Compound 65]
22 | 50 µM | O=C(NCc1cccc(Oc2ccccc2)c1)c1cc(Cl)ccc1O [Compound 67]
23 | 14 µM | O=C(NCCc1ccc(OCc2ccccc2)c(OCc2ccccc2)c1)c1cc(Cl)ccc1O [Compound 69]
24 | 9 µM | O=C(Nc1cccc(CNc2ccc(Cl)cc2)c1)c1cc(Cl)ccc1O [Compound 74]
25 | 1 µM | O=C(Nc1cc(Cl)ccc1OCCCc1ccccc1)c1cc(Cl)ccc1O [Compound 75]
26 | 1 µM | Cc1cccc(CCOc2ccc(Cl)cc2NC(=O)c2cc(Cl)ccc2O)c1 [Compound 77]
27 | 4 µM | O=C(Nc1ccccc1OCCc1ccccc1)c1cc(Cl)ccc1O [Compound 80]
28 | 1 µM | Cc1cc(C)c(CCOc2ccc(Cl)cc2NC(=O)c2cc(Cl)ccc2O)c(C)c1 [Compound 81]
29 | 0.7 µM | O=C(Nc1cc(Cl)ccc1OCCc1ccccc1C(F)(F)F)c1cc(Cl)ccc1O [Compound 82]
30 | 0.8 µM | O=C(Nc1cc(Cl)ccc1OCCc1cccc(C(F)(F)F)c1)c1cc(Cl)ccc1O [Compound 83]
31 | 14 µM | Cc1ccccc1COc1cccc(NC(=O)c2cc(Cl)ccc2O)c1 [Compound 84]
32 | 2 µM | O=C(Nc1cc(OCCc2ccccc2)c(Cl)cc1Cl)c1cc(Cl)ccc1O [Compound 92]
33 | 4 µM | O=C(Nc1ccc(Cl)cc1)c1cc(Cl)ccc1O [Compound 93]
34 | 6 µM | CC(Cc1ccccc1)Oc1cccc(NC(=O)c2cc(Cl)ccc2O)c1 (stereo not drawn) [Compound 95]
35 | 1 µM | O=C(Nc1cc(Cl)ccc1OCCc1ccc(C(F)(F)F)cc1)c1cc(Cl)ccc1O [Compound 99]
36 | 1 µM | CC(C)c1ccc(CCOc2ccc(Cl)cc2NC(=O)c2cc(Cl)ccc2O)cc1 [Compound 100]
37 | 2 µM | CC(C)(C)c1ccc(OCCc2ccccc2)c(NC(=O)c2cc(Cl)ccc2O)c1 [Compound 102]
38 | 1 µM | O=C(Nc1cc(Cl)ccc1OCCc1ccc(F)cc1)c1cc(Cl)ccc1O [Compound 106]
39 | 1 µM | O=C(Nc1cc(Cl)ccc1OCCc1cccc(Cl)c1)c1cc(Cl)ccc1O [Compound 109]

The next lines start with the compound.

Row | Compound | EC50
40 | CCOc1cc(CNc2cccc(NC(=O)c3cc(Cl)ccc3O)c2)ccc1OCc1ccccc1 [Compound 10] | 14 µM
41 | O=C(Nc1cccc(NCc2ccc3c(c2)OCO3)c1)c1cc(Cl)ccc1O [Compound 11] | 40 µM
42 | COc1ccc(NC(=O)c2cc(Cl)ccc2O)cc1OCCc1ccccc1 [Compound 12] | 13 µM
43 | O=C(Nc1cccc(CCOc2ccccc2)c1)c1cc(Cl)ccc1O [Compound 18] | 10 µM
44 | CCOc1cc(CNc2cccc(NC(=O)c3cc(Cl)ccc3O)c2)ccc1OC [Compound 20] | 24 µM
45 | O=C(c1ccccc1)c1cccc(NC(=O)c2cc(Cl)ccc2O)c1 [Compound 21] | 9 µM
46 | O=C(Nc1cc(Cl)ccc1OCCc1ccccc1)c1cc(Cl)ccc1O [Compound 22] | 2 µM
47 | O=C(Nc1cccc([N+](=O)[O-])c1)c1cc(Cl)ccc1O [Compound 23] | 4 µM
48 | COc1ccccc1CCOc1ccc(Cl)c(NC(=O)c2cc(Cl)ccc2O)c1 [Compound 32] | 6 µM
49 | COc1cccc(CCOc2ccc(Cl)c(NC(=O)c3cc(Cl)ccc3O)c2)c1 [Compound 33] | 3 µM
50 | O=C(Nc1cccc(OCCc2cccc(F)c2)c1)c1cc(Cl)ccc1O [Compound 35] | 10 µM
51 | O=C(Nc1cccc(CNc2ccccc2)c1)c1cc(Cl)ccc1O [Compound 36] | 21 µM
52 | COc1ccc(CCOc2ccc(Cl)c(NC(=O)c3cc(Cl)ccc3O)c2)cc1 [Compound 37] | 3 µM
53 | CCC(COc1cccc(NC(=O)c2cc(Cl)ccc2O)c1)c1ccccc1 (stereo not drawn) [Compound 42] | 3 µM
54 | Cc1ccc(OCCc2ccccc2)cc1NC(=O)c1cc(Cl)ccc1O [Compound 43] | 3 µM
55 | O=C(Nc1cccc(OCC2(c3ccccc3)CC2)c1)c1cc(Cl)ccc1O [Compound 44] | 5 µM
56 | Cc1ccc(NC(=O)c2cc(Cl)ccc2O)cc1OCCc1ccccc1 [Compound 45] | 4 µM
57 | CN(C)c1ccc(CCOc2cccc(NC(=O)c3cc(Cl)ccc3O)c2)cc1 [Compound 47] | 4 µM
58 | Cc1c(NC(=O)c2cc(Cl)ccc2O)cccc1OCCc1ccccc1 [Compound 48] | 7 µM
59 | O=C(NCc1ccc(OCCc2ccccc2)cc1)c1cc(Cl)ccc1O [Compound 53] | 23 µM
60 | O=C(NCCc1ccc(Oc2ccccc2)cc1)c1cc(Cl)ccc1O [Compound 54] | 13 µM

Row | Compound | EC50
61 | Cc1ccccc1CCOc1cccc(NC(=O)c2cc(Cl)ccc2O)c1 [Compound 55] | 15 µM
62 | Cc1cccc(CCOc2cccc(NC(=O)c3cc(Cl)ccc3O)c2)c1 [Compound 57] | 15 µM
63 | O=C(Nc1ccc(OCCc2ccccc2)cc1)c1cc(Cl)ccc1O [Compound 63] | 20 µM
64 | O=C(NCc1cccc(OCCc2ccccc2)c1)c1cc(Cl)ccc1O [Compound 66] | 50 µM
65 | Cc1ccccc1CCOc1ccc(Cl)cc1NC(=O)c1cc(Cl)ccc1O [Compound 76] | 1 µM
66 | Cc1ccc(CCOc2ccc(Cl)cc2NC(=O)c2cc(Cl)ccc2O)cc1 [Compound 78] | 2 µM
67 | COc1ccc(CCOc2ccc(Cl)cc2NC(=O)c2cc(Cl)ccc2O)cc1 [Compound 79] | 2 µM
68 | CC(C)c1ccc(COc2cccc(NC(=O)c3cc(Cl)ccc3O)c2)cc1 [Compound 85] | 6 µM
69 | O=C(Nc1cc(Cl)ccc1OCCc1ccc(Cl)cc1)c1cc(Cl)ccc1O [Compound 87] | 0.9 µM
70 | O=C(NCCc1cccc(OCc2ccccc2)c1)c1cc(Cl)ccc1O [Compound 90] | 18 µM
71 | O=C(Nc1cccc(Cl)c1)c1cc(Cl)ccc1O [Compound 94] | 3 µM
72 | O=C(Nc1cccc(OCCCc2ccccc2)c1)c1cc(Cl)ccc1O [Compound 96] | 10 µM
73 | O=C(Nc1ccc(OC2CCCC[C@H]2c2ccccc2)cc1)c1cc(Cl)ccc1O (stereo partly drawn) [Compound 97] | 3 µM
74 | O=C(Nc1cc(Cl)ccc1OC1CCCC[C@H]1c1ccccc1)c1cc(Cl)ccc1O (stereo partly drawn) [Compound 98] | 4 µM
75 | Cc1cc(C)c(OCCc2ccccc2)c(NC(=O)c2cc(Cl)ccc2O)c1 [Compound 101] | 4 µM
76 | CCC(COc1ccc(Cl)cc1NC(=O)c1cc(Cl)ccc1O)c1ccccc1 (stereo not drawn) [Compound 103] | 2 µM
77 | O=C(Nc1cc(C(F)(F)F)ccc1OCCc1ccccc1)c1cc(Cl)ccc1O [Compound 104] | 0.8 µM
78 | Cc1cc(C)cc(COc2cccc(NC(=O)c3cc(Cl)ccc3O)c2)c1 [Compound 105] | 8 µM
79 | O=C(Nc1cc(Cl)ccc1OCCc1ccccc1F)c1cc(Cl)ccc1O [Compound 107] | 2 µM
80 | CN(C)c1ccc(CCOc2ccc(Cl)cc2NC(=O)c2cc(Cl)ccc2O)cc1 [Compound 108] | 3 µM

same assay, conditions: Homo sapiens; LNCaP cells; flagged "Estimated": based on actual data at different concentrations

Row | EC50 | Compound
81 | 30 µM | CC(=O)Nc1cc(F)c(F)cc1C(=O)Nc1cccc(OCCc2ccccc2)c1 [Compound 7]
82 | 20 µM | O=C(c1ccccc1)c1ccc(NC(=O)c2cc(Cl)ccc2O)cc1 [Compound 25]
83 | 30 µM | O=C(Nc1cccc(OCCc2ccccc2)c1)c1cc(Cl)ccc1O [Compound 29]
84 | 30 µM | O=C(Nc1cccc(OCc2ccc3c(c2)OCO3)c1)c1cc(Cl)ccc1O [Compound 86]
